Experimental data: PubChem BioAssay AID1259407 (Chemical Carcinogenesis Research Information System (CCRIS), 2018)
Active and inactive are the calls of the source. The rule behind the calls is not given here.

Test system: CCRIS mutagenicity, Ames/micronucleus/aberration tests
Assay: CCRIS mutagenicity studies
[1] = Test System: AMES SALMONELLA TYPHIMURIUM, Strain/Indicator: TA98, Metabolic Activation: NONE, Method: PREINCUBATION
[2] = Test System: AMES SALMONELLA TYPHIMURIUM, Strain/Indicator: TA100, Metabolic Activation: NONE, Method: PREINCUBATION
[3] = Test System: AMES SALMONELLA TYPHIMURIUM, Strain/Indicator: TA1535, Metabolic Activation: NONE, Method: PREINCUBATION
[4] = Test System: AMES SALMONELLA TYPHIMURIUM, Strain/Indicator: TA1537, Metabolic Activation: NONE, Method: PREINCUBATION
[5] = Test System: AMES SALMONELLA TYPHIMURIUM, Strain/Indicator: TA97, Metabolic Activation: NONE, Method: PREINCUBATION
[6] = Test System: AMES SALMONELLA TYPHIMURIUM, Strain/Indicator: TA98, Metabolic Activation: NONE, Method: STANDARD PLATE
[7] = Test System: AMES SALMONELLA TYPHIMURIUM, Strain/Indicator: TA100, Metabolic Activation: NONE, Method: STANDARD PLATE

SMILES: CCCCCCCCBr
- mutagenic call [1]: inactive; negative
- mutagenic call (Test System: AMES SALMONELLA TYPHIMURIUM, Strain/Indicator: TA98, Metabolic Activation: RAT LIVER S-9, PHENOBARBITAL AND BETA-NAPHTHOFLAVONE, Method: PREINCUBATION): inactive; negative
- mutagenic call [2]: inactive; negative
- mutagenic call (Test System: AMES SALMONELLA TYPHIMURIUM, Strain/Indicator: TA100, Metabolic Activation: RAT LIVER S-9, PHENOBARBITAL AND BETA-NAPHTHOFLAVONE, Method: PREINCUBATION): inactive; negative
- mutagenic call (Test System: AMES SALMONELLA TYPHIMURIUM, Strain/Indicator: TA102, Metabolic Activation: NONE, Method: PREINCUBATION): inactive; negative
- mutagenic call (Test System: AMES SALMONELLA TYPHIMURIUM, Strain/Indicator: TA102, Metabolic Activation: RAT LIVER S-9, PHENOBARBITAL AND BETA-NAPHTHOFLAVONE, Method: PREINCUBATION): inactive; negative
- mutagenic call (Test System: AMES SALMONELLA TYPHIMURIUM, Strain/Indicator: TA104, Metabolic Activation: NONE, Method: PREINCUBATION): inactive; negative
- mutagenic call (Test System: AMES SALMONELLA TYPHIMURIUM, Strain/Indicator: TA104, Metabolic Activation: RAT LIVER S-9, PHENOBARBITAL AND BETA-NAPHTHOFLAVONE, Method: PREINCUBATION): inactive; negative
- mutagenic call [3]: inactive; negative
- mutagenic call (Test System: AMES SALMONELLA TYPHIMURIUM, Strain/Indicator: TA1535, Metabolic Activation: RAT LIVER S-9, PHENOBARBITAL AND BETA-NAPHTHOFLAVONE, Method: PREINCUBATION): inactive; negative
- mutagenic call [4]: inactive; negative
- mutagenic call (Test System: AMES SALMONELLA TYPHIMURIUM, Strain/Indicator: TA1537, Metabolic Activation: RAT LIVER S-9, PHENOBARBITAL AND BETA-NAPHTHOFLAVONE, Method: PREINCUBATION): inactive; negative
- mutagenic call (Test System: E.COLI, Strain/Indicator: WP2UVRA/PKM101, Metabolic Activation: NONE, Method: PREINCUBATION): inactive; negative
- mutagenic call (Test System: E.COLI, Strain/Indicator: WP2UVRA/PKM101, Metabolic Activation: RAT LIVER S-9, PHENOBARBITAL AND BETA-NAPHTHOFLAVONE, Method: PREINCUBATION): inactive; negative
- mutagenic call (Test System: E.COLI, Strain/Indicator: WP2UVRA, Metabolic Activation: NONE, Method: PREINCUBATION): inactive; negative
- mutagenic call (Test System: E.COLI, Strain/Indicator: WP2UVRA, Metabolic Activation: RAT LIVER S-9, PHENOBARBITAL AND BETA-NAPHTHOFLAVONE, Method: PREINCUBATION): inactive; negative

SMILES: CCc1cc(C(N)=S)ccn1
- mutagenic call (End Point: IN VITRO CHROMOSOMAL ABERRATIONS, Test System: CHO CELLS, Metabolic Activation: NONE): inactive; negative; significant increase at 7 mm attributed to precipitation
- mutagenic call (Test System: AMES SALMONELLA TYPHIMURIUM, Strain/Indicator: TA97, Metabolic Activation: HAMSTER, LIVER, S-9, AROCLOR 1254 (10%), Method: PREINCUBATION): inactive; negative
- mutagenic call (Test System: AMES SALMONELLA TYPHIMURIUM, Strain/Indicator: TA97, Metabolic Activation: HAMSTER, LIVER, S-9, AROCLOR 1254 (30%), Method: PREINCUBATION): inactive; negative
- mutagenic call [5]: inactive; negative
- mutagenic call (Test System: AMES SALMONELLA TYPHIMURIUM, Strain/Indicator: TA97, Metabolic Activation: RAT, LIVER, S-9, AROCLOR 1254 (10%), Method: PREINCUBATION): inactive; negative
- mutagenic call (Test System: AMES SALMONELLA TYPHIMURIUM, Strain/Indicator: TA97, Metabolic Activation: RAT, LIVER, S-9, AROCLOR 1254 (30%), Method: PREINCUBATION): inactive; negative
- mutagenic call (Test System: AMES SALMONELLA TYPHIMURIUM, Strain/Indicator: TA98, Metabolic Activation: HAMSTER, LIVER, S-9, AROCLOR 1254 (10%), Method: PREINCUBATION): inactive; negative
- mutagenic call (Test System: AMES SALMONELLA TYPHIMURIUM, Strain/Indicator: TA98, Metabolic Activation: HAMSTER, LIVER, S-9, AROCLOR 1254 (30%), Method: PREINCUBATION): inactive; negative
- mutagenic call [1]: inactive; negative
- mutagenic call (Test System: AMES SALMONELLA TYPHIMURIUM, Strain/Indicator: TA98, Metabolic Activation: RAT, LIVER, S-9, AROCLOR 1254 (10%), Method: PREINCUBATION): inactive; negative
- mutagenic call (Test System: AMES SALMONELLA TYPHIMURIUM, Strain/Indicator: TA98, Metabolic Activation: RAT, LIVER, S-9, AROCLOR 1254 (30%), Method: PREINCUBATION): inactive; negative
- mutagenic call (Test System: AMES SALMONELLA TYPHIMURIUM, Strain/Indicator: TA100, Metabolic Activation: HAMSTER, LIVER, S-9, AROCLOR 1254 (10%), Method: PREINCUBATION): inactive; negative
- mutagenic call (Test System: AMES SALMONELLA TYPHIMURIUM, Strain/Indicator: TA100, Metabolic Activation: HAMSTER, LIVER, S-9, AROCLOR 1254 (30%), Method: PREINCUBATION): inactive; negative
- mutagenic call [2]: inactive; negative
- mutagenic call (Test System: AMES SALMONELLA TYPHIMURIUM, Strain/Indicator: TA100, Metabolic Activation: RAT, LIVER, S-9, AROCLOR 1254 (10%), Method: PREINCUBATION): inactive; negative
- mutagenic call (Test System: AMES SALMONELLA TYPHIMURIUM, Strain/Indicator: TA100, Metabolic Activation: RAT, LIVER, S-9, AROCLOR 1254 (30%), Method: PREINCUBATION): inactive; negative
- mutagenic call (Test System: AMES SALMONELLA TYPHIMURIUM, Strain/Indicator: TA1535, Metabolic Activation: HAMSTER, LIVER, S-9, AROCLOR 1254 (10%), Method: PREINCUBATION): inactive; negative
- mutagenic call (Test System: AMES SALMONELLA TYPHIMURIUM, Strain/Indicator: TA1535, Metabolic Activation: HAMSTER, LIVER, S-9, AROCLOR 1254 (30%), Method: PREINCUBATION): inactive; negative
- mutagenic call [3]: inactive; negative
- mutagenic call (Test System: AMES SALMONELLA TYPHIMURIUM, Strain/Indicator: TA1535, Metabolic Activation: RAT, LIVER, S-9, AROCLOR 1254 (10%), Method: PREINCUBATION): inactive; negative
- mutagenic call (Test System: AMES SALMONELLA TYPHIMURIUM, Strain/Indicator: TA1535, Metabolic Activation: RAT, LIVER, S-9, AROCLOR 1254 (30%), Method: PREINCUBATION): inactive; negative

SMILES: C(=N\NC1=NCCN1)/c1c2ccccc2c(/C=N/NC2=NCCN2)c2ccccc12
- mutagenic call (Test System: AMES SALMONELLA TYPHIMURIUM, Strain/Indicator: TA97A, Metabolic Activation: NONE, Method: STANDARD PLATE): active; positive
- mutagenic call [6]: active; positive
- mutagenic call (Test System: AMES SALMONELLA TYPHIMURIUM, Strain/Indicator: TA1538, Metabolic Activation: NONE, Method: STANDARD PLATE): active; positive

SMILES: Cc1c(C)c2c(N)c3ccccc3nc2c2ccccc12
- mutagenic call [5]: active; positive
- mutagenic call (Test System: AMES SALMONELLA TYPHIMURIUM, Strain/Indicator: TA97, Metabolic Activation: NONE, Method: STANDARD PLATE): active; positive
- mutagenic call [1]: active; positive
- mutagenic call [4]: inactive; negative
- mutagenic call (Test System: AMES SALMONELLA TYPHIMURIUM, Strain/Indicator: TA1537, Metabolic Activation: NONE, Method: STANDARD PLATE): active; positive

SMILES: CC1CNc2cc(O)c3ccc4ccccc4c3c21 (stereo not given)
- mutagenic call (Test System: AMES SALMONELLA TYPHIMURIUM, Strain/Indicator: TA98, Metabolic Activation: RAT, LIVER, S-9, AROCLOR 1254, Method: STANDARD PLATE): active; positive
- mutagenic call (Test System: AMES SALMONELLA TYPHIMURIUM, Strain/Indicator: TA98, Metabolic Activation: RAT, LIVER, S-9, AROCLOR, Method: STANDARD PLATE): active; positive

SMILES: N/C(=N\O)c1ccc([N+](=O)[O-])o1
- mutagenic call [7]: active; positive

SMILES: ClCc1cc2cccc3ccc4c5ccccc5cc1c4c32
- mutagenic call [6]: active; positive
- mutagenic call [7]: active; positive
